Results from patent US20130333715A1, “SHAMPOO COMPOSITIONS AND METHODS OF MAKING SAME” (The Procter & Gamble Company, priority 2012, published 2013).

Key:
[1] = Calculated conditional stability constants for chelants with Cu^+2 at specified pH; type: physicochemical
Description: (§1) However, as the pH range of the present compositions are acidic (i.e., less than 7), the log alpha value (αm) is considered to be constant and approximately negligible.

[2] = Calculated conditional stability constants for chelants with Ca^+2 at specified pH; type: physicochemical
Description: as §1
The calculated stability constants for a range of chelants with Fe^+3, Cu^+2, and Ca^+2 are given below in Table 3: […]

[3] = Calculated conditional stability constants for chelants with Fe^+3 at specified pH
Description: The gradual change in ligand species as pH changes can be represented using alpha (α) coefficients, defined as: [formula] […] By combining stability (K) and alpha (α) constants at a given pH, the formula below provides the effective chelating power of a chelant.

[4] = 1:1 complex, fully deprotonated chelant, 25° C., 0.1M ionic strength; cited from earlier work
[5] = 1:1 complex, fully deprotonated chelant, 25° C., 0.1M ionic strength; cited from earlier work; remark: listed apart in the source
[6] = 1:1 complex, fully deprotonated chelant, 25° C., 0.1M ionic strength; cited from earlier work; remark: listed apart in the source

Structure (SMILES)	log Conditional Stability Constant (@ pH) Cu^+2 ([1]; pH 2)	log Conditional Stability Constant (@ pH) Cu^+2 ([1]; pH 3)	log Conditional Stability Constant (@ pH) Cu^+2 ([1]; pH 4)	log Conditional Stability Constant (@ pH) Cu^+2 ([1]; pH 5)	log Conditional Stability Constant (@ pH) Cu^+2 ([1]; pH 6)	log Conditional Stability Constant (@ pH) Cu^+2 ([1]; pH 7)	log Conditional Stability Constant (@ pH) Cu^+2 ([1]; pH 8)	log Conditional Stability Constant (@ pH) Ca^+2 ([2]; pH 2)	log Conditional Stability Constant (@ pH) Ca^+2 ([2]; pH 3)	log Conditional Stability Constant (@ pH) Ca^+2 ([2]; pH 4)	log Conditional Stability Constant (@ pH) Ca^+2 ([2]; pH 5)	log Conditional Stability Constant (@ pH) Ca^+2 ([2]; pH 6)	log Conditional Stability Constant (@ pH) Ca^+2 ([2]; pH 7)	log Conditional Stability Constant (@ pH) Ca^+2 ([2]; pH 8)	log K Cu [4]	log K Fe [5]	log K Ca [6]	further results
O=C(O)CN(CCO)CCN(CC(=O)O)CC(=O)O [HEDTA]	3.39	6.30	8.85	10.88	12.41	13.53	14.54	−5.81	−2.90	−0.35	1.68	3.21	4.33	5.34	–	–	–	–
O=C(O)CN(CCN(CC(=O)O)Cc1ccccc1O)Cc1ccccc1O [HBED]	–	–	–	–	–	–	–	–	–	–	–	–	–	–	9.29	39.7	9.3	log Conditional Stability Constant (@ pH) Fe^+3 ([3]; pH 2): 13.54; log Conditional Stability Constant (@ pH) Fe^+3 ([3]; pH 3): 17.54; log Conditional Stability Constant (@ pH) Fe^+3 ([3]; pH 4): 21.52; log Conditional Stability Constant (@ pH) Fe^+3 ([3]; pH 5): 25.39; log Conditional Stability Constant (@ pH) Fe^+3 ([3]; pH 6): 28.82; log Conditional Stability Constant (@ pH) Fe^+3 ([3]; pH 7): 31.89; log Conditional Stability Constant (@ pH) Fe^+3 ([3]; pH 8): 34.85
O=C(O)CN(CCN(CC(=O)O)CC(=O)O)CCN(CC(=O)O)CC(=O)O [DTPA]	3.34	6.88	9.85	12.24	14.31	16.31	18.22	−7.26	−3.72	−0.75	1.64	3.71	5.71	7.62	21.4	16.4	10.75	–
O=C(O)CN(CCN(CC(=O)O)CC(=O)O)CC(=O)O [EDTA]	5.45	8.29	10.46	12.45	14.24	15.55	16.60	−2.65	0.19	2.36	4.35	6.14	7.45	8.50	18.78	14.3	10.65	–
O=C(O)CC(NCC(O)CNC(CC(=O)O)C(=O)O)C(=O)O (stereo not shown) [HPDDS, 2-hydroxypropylendiamin-N—N′-disucinnic acid]	−4.27	−0.37	2.99	5.40	7.45	9.43	11.21	−14.17	−10.27	−6.91	−4.50	−2.45	0.47	1.31	12.84	–	2.94	–
CC(O)(P(=O)(O)O)P(=O)(O)O [HEDP]	–	–	–	–	–	–	–	–	–	–	–	–	–	–	11.84	14.1	6.0	–
O=C(O)CC[C@H](NCCN[C@H](CCC(=O)O)C(=O)O)C(=O)O [EDDG, ethylenediamine-N,N′-diglutaric acid]	–	–	–	–	–	–	–	–	–	–	–	–	–	–	15.15	–	2.70	–
CC(C(=O)O)N(CC(=O)O)CC(=O)O (stereo not shown) [MGDA, methylglycinediacetic acid]	3.80	5.84	7.08	8.11	9.11	10.11	–	−3.10	−1.06	0.18	1.21	2.21	3.21	4.21	–	–	–	–
O=C(O)CC[C@@H](C(=O)O)N(CC(=O)O)CC(=O)O [GLD, glutamic acid diacetic acid]	−0.42	3.32	5.75	7.33	8.45	9.47	10.47	−7.62	−3.88	−1.45	0.13	1.25	2.27	3.27	–	–	–	–
